Assay results taken from the supplement of paper PMC10307832.

Assays:
Test in all cases: relative viability (nuclei count vs DMSO), 5 days (fraction); higher = more cells survive
[1] = compound: Cc1ccc2nc(NCCN)c3ncc(C)n3c2c1 + CS(=O)(=O)N1CCN(Cc2cc3nc(-c4cccc5[nH]ncc45)nc(N4CCOCC4)c3s2)CC1 [Pictilisib] (partner 1 µM)
In short: (§1)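 Each reported value is a median over duplicate plates. It expresses relative viability: treated-well nuclei count divided by vehicle-well nuclei count. Lung cancer cell lines in 1536-well plates were dosed by pin tool a day after seeding, alone with one drug or with a fixed anchor-drug dose plus five library-drug doses (not always all listed) in √10 steps, and nuclei were counted after 5 days.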

Salubrinal + Tozasertib = compound: O=C(/C=C/c1ccccc1)NC(NC(=S)Nc1cccc2cccnc12)C(Cl)(Cl)Cl [Salubrinal] + Cc1cc(Nc2cc(N3CCN(C)CC3)nc(Sc3ccc(NC(=O)C4CC4)cc3)n2)n[nH]1 [Tozasertib] (partner 0.1 µM)
In short: as §1

[2] = compound: Cc1ccc2nc(NCCN)c3ncc(C)n3c2c1 + COc1cc2c(Oc3ccc(NC(=O)C4(C(=O)Nc5ccc(F)cc5)CC4)cc3F)ccnc2cc1OCCCN1CCOCC1 [Foretinib] (partner 0.25 µM)
In short: as §1

Salubrinal + Olaparib = compound: O=C(/C=C/c1ccccc1)NC(NC(=S)Nc1cccc2cccnc12)C(Cl)(Cl)Cl [Salubrinal] + O=C(c1cc(Cc2n[nH]c(=O)c3ccccc23)ccc1F)N1CCN(C(=O)C2CC2)CC1 [Olaparib] (partner 8 µM)
In short: as §1

Row | Cell Line | relative viability ([1]; first compound 0.04 µM) | relative viability ([1]; first compound 0.1265 µM) | relative viability ([1]; first compound 0.4 µM) | relative viability ([1]; first compound 1.265 µM) | relative viability ([1]; first compound 4 µM) | relative viability (Salubrinal + Tozasertib; first compound 0.08 µM) | relative viability (Salubrinal + Tozasertib; first compound 0.253 µM) | relative viability (Salubrinal + Tozasertib; first compound 0.8 µM) | relative viability (Salubrinal + Tozasertib; first compound 2.53 µM) | relative viability (Salubrinal + Tozasertib; first compound 8 µM) | relative viability ([2]; first compound 0.04 µM) | relative viability ([2]; first compound 0.1265 µM) | relative viability ([2]; first compound 0.4 µM) | relative viability ([2]; first compound 1.265 µM) | relative viability ([2]; first compound 4 µM) | relative viability (Salubrinal + Olaparib; first compound 0.08 µM) | relative viability (Salubrinal + Olaparib; first compound 0.253 µM) | relative viability (Salubrinal + Olaparib; first compound 0.8 µM) | relative viability (Salubrinal + Olaparib; first compound 2.53 µM) | relative viability (Salubrinal + Olaparib; first compound 8 µM)
1 | NCI-H1650 | 0.531 | 0.564 | 0.429 | 0.527 | 0.515 | 0.419 | 0.349 | 0.336 | 0.327 | 0.407 | 1.22 | 1.15 | 1.22 | 1.13 | 0.943 | 0.941 | 0.705 | 0.811 | 0.751 | 0.804
2 | NCI-H1651 | 0.512 | 0.477 | 0.593 | 0.589 | 0.506 | 0.711 | 0.639 | 0.776 | 0.608 | 0.734 | 0.682 | 0.744 | 0.825 | 0.727 | 0.759 | 0.189 | 0.181 | 0.208 | 0.152 | 0.183
3 | NCI-H1666 | 0.372 | 0.478 | 0.402 | 0.554 | 0.449 | 0.646 | 0.587 | 0.611 | 0.553 | 0.608 | 0.96 | 0.903 | 1.04 | 1.02 | 0.921 | 0.713 | 0.605 | 0.713 | 0.711 | 0.732
4 | NCI-H1734 | 0.457 | 0.481 | 0.451 | 0.409 | 0.424 | 0.304 | 0.256 | 0.294 | 0.274 | 0.268 | 0.911 | 0.903 | 0.78 | 0.95 | 0.801 | 0.699 | 0.6 | 0.651 | 0.583 | 0.637
5 | NCI-H1755 | 0.485 | 0.439 | 0.476 | 0.39 | 0.411 | 0.573 | 0.61 | 0.611 | 0.457 | 0.507 | 0.936 | 0.84 | 0.919 | 0.928 | 0.876 | 1.01 | 0.937 | 0.922 | 0.857 | 0.893
6 | NCI-H1793 | 0.393 | 0.381 | 0.383 | 0.389 | 0.309 | 0.504 | 0.637 | 0.234 | 0.26 | 0.326 | 0.79 | 0.68 | 0.672 | 0.615 | 0.748 | 1.09 | 0.948 | 0.876 | 0.979 | 0.751
7 | NCI-H1915 | 0.969 | – | 0.578 | 0.939 | 0.923 | 0.484 | 0.291 | 0.337 | 0.387 | 0.432 | 1.11 | 1.06 | – | 1.12 | 1.03 | 0.256 | – | 0.257 | 0.28 | 0.273
8 | NCI-H1944 | 0.331 | 0.37 | 0.319 | 0.363 | 0.328 | 0.269 | 0.269 | 0.276 | 0.229 | 0.278 | 0.896 | 0.862 | 0.773 | 0.9 | 0.958 | 0.435 | 0.478 | 0.461 | 0.431 | 0.417
